Measured values published in patent publication US8431715B2, “Thiazole compound (as PPARδ) ligand and pharmaceutical, cosmetic and health food comprised thereof” (Seoul National University Industry Foundation, priority 2007, dated 2013).
Where two headings read alike, the source gives them in different places. Blank lines part the entries; values can stand above or below the compound they belong to.

Assays:
[1] = system: C57BL/6 mice; assay: Obesity inhibitory effect, high-fat feed; type: in vivo; details: 10 mg/Kg/day oral, 35% fat feed for 35 days; vehicle 58.9%
Procedure: An animal test using mice was performed to confirm the in vivo effect of the compound of the present invention. C57BL/6 (SLC Co.) mice at 14 weeks were used. To induce obesity, feeds containing 35% fat were given.

[2] = system: C57BL/6 mice; assay: Hyperlipidemia improving effect, blood HDL level; type: in vivo; details: 10 mg/kg/day oral, high fat feeds, 6 weeks, serum
Procedure: In vivo animal test using C57BL/6 (SLC Co.) mice at 6 weeks was performed to confirm the hyperlipidemia improving effect of the compound of the present invention. […] 6 weeks later, blood was taken from orbital veins. Serum was separated and blood HDL level was measured by biochemical method.

[3] = system: mice; assay: GTT (glucose tolerance test), diabetes improving effect; type: in vivo; details: glucose 1.5 g/Kg intra-abdominal, oral pre-treatment 78 days
Procedure: GTT (glucose tolerance test) was performed to confirm the diabetes improving effect of the compound of the present invention. Glucose (1.5 g/Kg) was intra-abdominally administered to the mice pre-treated orally with samples for 78 days. Blood glucose was measured every hour. Fasting blood glucose was lower in the group treated with the compound of the present invention than in the group treated with vehicle or GW501516.

[4] = molecular target: T1, PPARδ (Homo sapiens, UniProt Q03181); details: literature; cited from earlier work
T1 sequence (Q03181 1-441): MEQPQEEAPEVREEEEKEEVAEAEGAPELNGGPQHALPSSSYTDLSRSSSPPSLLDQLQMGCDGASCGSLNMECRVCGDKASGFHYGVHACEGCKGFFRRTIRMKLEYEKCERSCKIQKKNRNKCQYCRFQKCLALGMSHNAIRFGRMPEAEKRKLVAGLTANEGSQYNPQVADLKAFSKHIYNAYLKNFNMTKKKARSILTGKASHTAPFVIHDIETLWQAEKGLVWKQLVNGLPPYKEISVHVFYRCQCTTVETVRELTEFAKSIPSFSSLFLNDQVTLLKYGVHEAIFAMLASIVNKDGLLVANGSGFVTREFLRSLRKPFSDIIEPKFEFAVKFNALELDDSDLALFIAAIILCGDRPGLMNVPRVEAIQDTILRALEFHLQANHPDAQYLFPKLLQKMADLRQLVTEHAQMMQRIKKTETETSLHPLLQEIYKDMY

[5] = molecular target: T2, PPARγ (Homo sapiens, UniProt P37231); assay: Transfection assay (luciferase reporter) in CV-1 cells, PPARγ; type: cell-based; details: 24 hours treatment
T2 construct: Full length PPARs plasmid DNA, reporter DNA confirming PPARs activity owing to its luciferase activity; expressed in transfected cells; host or cells: CV-1 cells
T2 sequence (P37231 1-505): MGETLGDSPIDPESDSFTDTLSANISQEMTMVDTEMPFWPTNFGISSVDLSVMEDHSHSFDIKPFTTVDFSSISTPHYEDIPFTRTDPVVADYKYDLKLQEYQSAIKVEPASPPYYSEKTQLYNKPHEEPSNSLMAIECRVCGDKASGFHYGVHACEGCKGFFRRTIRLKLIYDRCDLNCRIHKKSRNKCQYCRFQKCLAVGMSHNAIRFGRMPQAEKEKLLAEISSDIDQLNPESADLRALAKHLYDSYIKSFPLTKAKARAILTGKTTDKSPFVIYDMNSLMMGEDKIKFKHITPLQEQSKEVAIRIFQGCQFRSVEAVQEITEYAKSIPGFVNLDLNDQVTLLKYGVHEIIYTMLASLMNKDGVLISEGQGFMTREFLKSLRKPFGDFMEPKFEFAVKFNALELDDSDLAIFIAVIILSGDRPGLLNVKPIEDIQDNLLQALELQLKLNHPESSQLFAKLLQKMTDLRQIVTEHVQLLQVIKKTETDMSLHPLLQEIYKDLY
Procedure: (§1) The PPARδ activities of the R-form compound represented by formula 1 of the present invention and the S-form compound represented by formula 2 were measured by transfection assay. In addition, the selectivity to PPAR subtypes, PPARα and PPARγ, was examined. Cytotoxicity was tested by MTT assay and in vivo activity and toxicity was investigated by animal experiment using mice.
(§2) CV-1 cells were used in this assay. The cells were inoculated in a 96-well plate containing DMEM supplemented with 10% FBS, DBS (delipidated) and 1% penicillin/streptomycin and cultured in a 37 °C, 5% CO2 incubator. The experiment was performed according to the steps of inoculation, transfection, sample treatment and confirmation. Particularly, CV-1 cells were inoculated in a 96 well-plate (5000 cells/well), followed by transfection 24 hours later. Full length PPARs plasmid DNA, reporter DNA confirming PPARs activity owing to its luciferase activity, β-galactosidase DNA providing information on transfection efficiency, and transfection reagent were used for the transfection. The compounds of formula 1 and formula 2 were dissolved in dimethylsulfoxide (DMSO), which were treated to the cells via media at different concentrations. […] Luciferase activity and β-galactosidaseactivity were measured with Luminometer and a microplate reader. […] A graph was made with those values and EC50 was calculated.

[6] = molecular target: T3, PPARα (Homo sapiens, UniProt Q07869); assay: Transfection assay (luciferase reporter) in CV-1 cells, PPARα; type: cell-based; details: 24 hours treatment
T3 construct: Full length PPARs plasmid DNA, reporter DNA confirming PPARs activity owing to its luciferase activity; expressed in transfected cells; host or cells: CV-1 cells
T3 sequence (Q07869 1-468): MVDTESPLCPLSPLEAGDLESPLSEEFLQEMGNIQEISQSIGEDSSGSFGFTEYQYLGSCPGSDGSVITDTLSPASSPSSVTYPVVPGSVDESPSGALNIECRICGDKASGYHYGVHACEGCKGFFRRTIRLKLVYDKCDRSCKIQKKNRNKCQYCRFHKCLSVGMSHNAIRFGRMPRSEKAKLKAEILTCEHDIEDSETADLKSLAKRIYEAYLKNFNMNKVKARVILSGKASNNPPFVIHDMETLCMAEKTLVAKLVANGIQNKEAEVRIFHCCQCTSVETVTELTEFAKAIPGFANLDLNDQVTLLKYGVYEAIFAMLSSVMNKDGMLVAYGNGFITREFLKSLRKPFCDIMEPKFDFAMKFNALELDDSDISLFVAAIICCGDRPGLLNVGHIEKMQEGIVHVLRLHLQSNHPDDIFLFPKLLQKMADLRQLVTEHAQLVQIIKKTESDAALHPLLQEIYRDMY
Procedure: as §1, §2

[7] = molecular target: T1, PPARδ; assay: Transfection assay (luciferase reporter) in CV-1 cells, PPARδ; type: cell-based; parameters: Full length PPARs plasmid DNA, reporter DNA confirming PPARs activity owing to its luciferase activity; expressed in transfected cells; host or cells: CV-1 cells; details: CV-1 cells, 24 hours treatment
Procedure: as §1
CV-1 cells were used in this assay. The cells were inoculated in a 96-well plate containing DMEM supplemented with 10% FBS, DBS (delipidated) and 1% penicillin/streptomycin and cultured in a 37 °C, 5% CO2 incubator. The experiment was performed according to the steps of inoculation, transfection, sample treatment and confirmation. Particularly, CV-1 cells were inoculated in a 96 well-plate (5000 cells/well), followed by transfection 24 hours later. Full length PPARs plasmid DNA, reporter DNA confirming PPARs activity owing to its luciferase activity, β-galactosidase DNA providing information on transfection efficiency, and transfection reagent were used for the transfection. The compounds of formula 1 and formula 2 were dissolved in dimethylsulfoxide (DMSO), which were treated to the cells via media at different concentrations. After culturing the cells in the incubator for 24 hours, the cells were lysed by using lysis buffer. Luciferase activity and β-galactosidaseactivity were measured with Luminometer and a microplate reader. The obtained values of luciferase were modified by the values of β-galactosidase. A graph was made with those values and EC50 was calculated.

[8] = system: CV-1 cells; assay: MTT assay, cytotoxicity; type: cell-based; details: 24 hours, even at the concentration of 100,000 times the EC50 value
Procedure: MTT assay was performed to test cytotoxicity of the compounds of the present invention. MTT is a yellow substance soluble in water, but when it is introduced into a living cell, it turns into a purple insoluble crystal by dehydrogenase in mitochondria. Cytotoxicity can be confirmed by measuring OD550 after dissolving MTT in dimethylsulfoxide. The experiment was performed as follows.
CV-1 cells were inoculated in a 96-well plate (5000 cells/well). The cells were cultured in a 37[…] 5% CO2 incubator for 24 hours, and treated with the compounds of formula 1 and formula 2 at different concentrations. Then, the cells were cultured for 24 hours again, to which MTT reagent was added. After culturing for 15 minutes, the generated purple crystals were dissolved in dimethylsulfoxide. Optical density was measured with a microplate reader to confirm cytotoxicity.

SMILES: Cc1cc(SCc2sc(-c3ccc(C(F)(F)F)cc3)nc2C)ccc1OCC(=O)O [GW501516, [2-methyl-4-[[[4-methyl-2-[4-(trifluoromethyl)phenyl]-1,3-thiazol-5-yl]methyl]sulfanyl]phenoxy]acetic acid, reference compound]
- weight increase [1]: 26.5%
- HDL level increase compared with the control [2]: 36.3%
- blood glucose compared with vehicle [3]: lower blood glucose than the vehicle treated group
- recovery of blood glucose level to normal [3]: not recovered to normal

SMILES: CCCc1c(OCCCOc2ccc(OCC(=O)O)cc2)ccc(C(C)=O)c1O [L-165041]
- EC50 [4]: 530 nM
- selectivity to hPPARδ over PPARα or PPARγ [4]: 10 times

- EC50 PPARγ [5]: ia
- EC50 PPARα [6]: ia
- EC50 [7]: 5.1 nM
SMILES: Cc1cc(S[C@@H](Cc2ccccc2)c2sc(-c3ccc(C(F)(F)F)cc3)nc2C)ccc1OCC(=O)O [formula 2]
- cytotoxicity [8]: not to have cytotoxicity
